The numbers were not newly measured in patent US20190314298A1, “COMPOSITIONS FOR PREVENTING AND RELIEVING HANGOVER & LIVER DAMAGE WHICH OCCUR DUE TO ALCOHOL CONSUMPTION” (priority 2018, published 2019), which cites them from elsewhere.

The conditions of the data set: biological activities listed in background table.
`COc1cc(/C=C/C(=O)/C=C(O)\C=C\c2ccc(OC)c(OC)c2)ccc1O` [Methylcurcumin]: the Activity entry is listed as “L. amazonensis”.

On to `CC(C)=CC(=O)CC(C)c1ccc(C)cc1` (centres unmarked) [Ar-turmerone], for which the Activity result is on record as “snakebite”.

On to `O=C(C=Cc1ccc(O)cc1)CC(=O)C=Cc1ccc(O)cc1` [Bisdemethoxy curcumin], for which the Activity result is “antioxidant”.

With `COc1cc(/C=C/C(=O)CC(=O)/C=C/c2ccc([O-])c(OC)c2)ccc1[O-].[Na+].[Na+]` [Sodium curcuminate], the Activity entry is “anti-inflammatory”.

In the case of Demethoxy curcumin, the Activity entry was “antioxidant”.
